Experimental data as given in patent publication US12285498B2, “Pharmaceutical composition with nanoparticle-based drug delivery combined with non-invasive radiographic monitoring model” (NANOMEDTRIX, LLC, priority 2023, dated 2025).
Where two headings read alike, the source gives them in different places.

How the values were obtained:
in vivo [1] = test: in vivo
Text: Blood, urine, and stools were collected to evaluate renal and gastro-intestinal clearance of nanomaterials. Sequential and simultaneous administration of one material and before the start of another to allow full clearance.
Both strains were obtained from Inotiv (Indianapolis, IN, USA). F344 rats were instilled with rat AY27 bladder cancer cells and athymic nude rats were instilled with human male bladder cancer strains: T24 and UMUC-3. […] In these rats, blood/urine were collected, but spared from PK/PD studies to avoid confounding results. In this cohort, rats (n=3) were instilled with tumors and treated with sequential intravesical and oral drug-MSN 3-drugs load and body fluids (blood/urine) collection at the same prescribed time points. An example: four rounds of treatment were administered fluid collected n=3 samples at each time point.

in vivo [2] = test: in vivo; remark: listed apart in the source
Text: The following discusses oral administration and detection of the drug delivered orally. There is a need for oral drug delivery, i.e., it facilitates self-medication, storage, and reduced burden on the clinician, allowing for remote monitoring.

[3] = PK, intravenous administration of drug alone (current study); format: in vivo, rat; details: for Cmax: 3 mg/kg DOC, 12 mg/kg GEM, 6 mg/kg MMC; for AUC: read-out: AUC (Plasma Curves)
Description: Adult female rats are 250-300 g in body weight, or 10-15 times larger than adult C57-BI6 mice. The volume of an aqueous solution given by oral gavage procedure can be up to 5 mL/kg, thus for a 300 g rat, 1.5 mL volume is achievable (Turner, J Am Assoc Lab Anim Sci. 51(1): 25-30.). This permits a mass of 150 mg MSN, or the equivalent dose of free drug. The recommended volume of a tail vein injection is also 5 mL/kg, thus 150 mg MSN or equivalent drug can be administered by i.v. as well (https://research.unc.edu/files/2020/12/rat-handling-and-techniques.pdf).
We compared the one or 2 drugs to experiment carried out intravenous/systemic and/or intravesicular drug alone.

[4] = intravenous, cited from earlier work
[5] = known value; cited from earlier work
[6] = rat, in vivo
[7] = intravenous, cited from earlier work; remark: listed apart in the source
[8] = oral, 50 mg/kg; cited from earlier work
[9] = intravenous, cited from earlier work; remark: listed apart in the source
[10] = Comparison of AUC for drug-MSN versus drug administered alone (FIG. 7); details: rat, in vivo
[11] = female, rat, in vivo, Cmax in stools
[12] = female, rat, in vivo, initial concentration (Cmax) in urine
[13] = female, rat, in vivo, po, 3 mg/kg
[14] = female, rat, in vivo, po, Cmax in stool
[15] = female, rat, in vivo, po, Cmax in urine
[16] = female, rat, plasma, read-out: Cmax
[17] = female, rat, in vivo, po, 12 mg/kg

For `CC(=O)O[C@@]12CO[C@@H]1C[C@H](O)[C@@]1(C)C(=O)[C@H](O)C3=C(C)[C@@H](OC(=O)[C@H](O)[C@@H](NC(=O)OC(C)(C)C)c4ccccc4)C[C@@](O)([C@@H](OC(=O)c4ccccc4)[C@H]21)C3(C)C` [Docetaxel], the Cmax (in vivo [1]; [11]) was 9.44 ng/mL, the Cmax (in vivo [1]; [12]) was 16600 ng/mL and the detection in plasma (in vivo [1]; rat, in vivo) was “below the detection threshold”. For the same compound, the “time of Cmax in stools” value (in vivo [1]; rat, in vivo) was 24 h, the AUC (in vivo [2]; [13]) was 0.0133 µg·h/mL and the Clearance (in vivo [2]; [13]) was 45.11 L/h. It also gave a tmax (in vivo [2]; [13]) of 60 min, a Cmax (in vivo [2]; [14]) of 352 ng/mL and a Cmax (in vivo [2]; [15]) of 413 ng/mL. The “time of Cmax in stool” value (in vivo [2]; rat, in vivo, po) was 6 h, the Cmax [3, 16] was 116 ng/mL and the Clearance ([3]; female, rat, plasma, 3 mg/kg) was 624 mL/min. The AUC ([3]; female, rat, plasma, 3 mg/kg) was 0.016 µg·h/mL, the tmax ([3]; female, rat, plasma, 3 mg/kg, read-out: tmax) was 15 min and the “AUC (Plasma Curves)” value ([4]; 2 mg/kg) was 0.277 µg·h/mL. For the same compound, the Cmax ([4]; 2 mg/kg) was 68 ± 10 ng/mL, the “AUC (Plasma Curves)” value ([4]; 5 mg/kg) was 16367.39 µg·h/mL and the Cmax ([4]; 5 mg/kg) was 7000 ng/mL. For the same compound, the “AUC (Plasma Curves)” value ([4]; 8 mg/kg) was 2.2 ± 0.3 µg·h/mL, the Cmax ([4]; 8 mg/kg) was 950 ng/mL and the oral bioavailability [5] was 10%.

In the case of `Nc1ccn([C@@H]2O[C@H](CO)[C@@H](O)C2(F)F)c(=O)n1` [Gemcitabine], the “plasma Cmax as % of Cmax for urine” value (in vivo [1]; female, rat, in vivo) is reported as about 1%, the AUC (in vivo [1]; female, rat, in vivo, 12 mg/kg) is reported as 0.28 µg·h/mL and the Clearance (in vivo [1]; female, rat, in vivo, 12 mg/kg) is reported as 143 mL/min. It also gave a tmax (in vivo [1]; female, rat, in vivo, 12 mg/kg) of 15 min, a Cmax (in vivo [1]; [11]) of 2.23 ng/mL and a Cmax (in vivo [1]; [12]) of 55600 ng/mL. The “time of Cmax in plasma” value (in vivo [1]; rat, in vivo) was at most 15 min, the “time of Cmax in stools” value (in vivo [1]; rat, in vivo) was 24 h and the AUC (in vivo [2]; [17]) was 1.14 µg·h/mL. For the same compound, the Clearance (in vivo [2]; [17]) was 2.109 L/h, the tmax (in vivo [2]; [17]) was 30 min and the Cmax (in vivo [2]; [14]) was 26.1 ng/mL. The Cmax (in vivo [2]; [15]) was 4740 ng/mL, the “time of Cmax in stool” value (in vivo [2]; rat, in vivo, po) was 6 h and the Cmax [3, 16] was 1790 ng/mL. The Clearance ([3]; female, rat, plasma, 12 mg/kg) was 17.4 mL/min, the AUC ([3]; female, rat, plasma, 12 mg/kg) was 2.3 µg·h/mL and the tmax ([3]; female, rat, plasma, 12 mg/kg, read-out: tmax) was 15 min. The “AUC, drug alone compared with drug-loaded MSN” value [6] was “higher for drug alone”, the “AUC (Plasma Curves)” value ([7]; 15 mg/kg) was 22.69 ± 4.14 µg·h/mL and the Clearance ([7]; 15 mg/kg) was 393.29 L/h/m^2. The “AUC (Plasma Curves)” value ([7]; 20 mg/kg) was 133 ± 20 µg·h/mL, the Clearance ([7]; 20 mg/kg) was 89.46 L/h/m^2 and the “AUC (Plasma Curves)” value ([7]; 50 mg/kg) was 5031.61 ± 927.4 µg·h/mL. For the same compound, the Clearance ([7]; 50 mg/kg) was 29.56 L/h/m^2, the tmax ([7]; 15-20 mg/kg) was 4.98 min and the “AUC (Plasma Curves)” value [8] was 16132.95 ± 5128.0 µg·h/mL. The Cmax [8] was 1181.17 ± 47.1 ng/mL, the tmax [8] was 90 ± 54 min and the oral bioavailability [5] was 10%.

In the case of `CO[C@@]12[C@H](COC(N)=O)C3=C(C(=O)C(C)=C(N)C3=O)N1C[C@@H]1N[C@@H]12` [Mitomycin C, Mitomycin c], the Cmax (in vivo [1]; drug alone, intravesical, 3 mg/kg DOC, 12 mg/kg GEM, 6 mg/kg MMC, plasma) is reported as 32.19 ng/mL, the tmax (in vivo [1]; drug alone, intravesical, plasma) is reported as 15 min and the Cmax in stools (in vivo [1]; intravesical administration, stools) is reported as 94.22 ng/mL. For the same compound, the “initial concentration (Cmax) in urine” value (in vivo [1]; intravesical administration, urine, 15 minutes following administration) was 29498.07 ng/mL, the tmax (in vivo [2]; drug alone, oral, plasma) was 30 min and the Cmax in stool (in vivo [2]; oral administration, stool) was 157.09 ng/mL. The Cmax in urine (in vivo [2]; oral administration, urine) was 16135.89 ng/mL, the tmax [3] was 15 min and the Cmax ([3]; plasma) was 39.5 ng/mL. The Cmax ([9]; 4 mg/kg) was 800 ng/mL, the tmax ([9]; 4 mg/kg) was 15 min and the Cmax ([9]; 5 mg/kg) was 12800 ± 400 ng/mL. For the same compound, the tmax ([9]; 5 mg/kg) was 4.98 min and the “AUC, drug alone compared with drug-loaded MSN” value [10] was “higher for drug alone”.
